Reference: PubChem BioAssay AID330 (DTP/NCI, 2004)
“And” between values parts separate entries of the source, which are not always exact repeats. Equal entries are not always repeated. Toxic doses and inconclusive results are not listed. Rule for the calls: active = survival T/C of 150% or more; inactive = T/C below 125% in these data.

Tested on: P388 leukemia ip, CD2F1 mice, survival T/C
Test: NCI In Vivo Anticancer Drug Screen. Data for tumor model P388 Leukemia (intraperitoneal) in CD2F1 (CDF1) mice
Settings: endpoint: median survival time, higher = longer survival
Method in brief: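 Mice carrying the transplanted tumor received test compound or vehicle. Survival was recorded in each group, and the value is the treated-group measurement divided by that of the vehicle-treated control group.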

[1] = dose: 12.5 mg/kg/injection, schedule: Q01DX009 (ip), vehicle: saline with Tween-80
[2] = dose: 25.0 mg/kg/injection, schedule: Q01DX009 (ip), vehicle: saline with Tween-80
[3] = dose: 50.0 mg/kg/injection, schedule: Q01DX009 (ip), vehicle: saline with Tween-80
[4] = dose: 50.0 mg/kg/injection, schedule: Q01DX005 (ip), vehicle: saline with Tween-80
[5] = dose: 100.0 mg/kg/injection, schedule: Q01DX005 (ip), vehicle: saline with Tween-80
[6] = dose: 200.0 mg/kg/injection, schedule: Q01DX005 (ip), vehicle: saline with Tween-80
[7] = dose: 60.0 mg/kg/injection, schedule: Q01DX005 (ip), vehicle: saline with Tween-80
[8] = dose: 120.0 mg/kg/injection, schedule: Q01DX005 (ip), vehicle: saline with Tween-80
[9] = dose: 240.0 mg/kg/injection, schedule: Q01DX005 (ip), vehicle: saline with Tween-80
[10] = dose: 25.0 mg/kg/injection, schedule: Q01DX005 (ip), vehicle: Klucel (hydroxypropylcellulose) (HPC)
[11] = dose: 50.0 mg/kg/injection, schedule: Q01DX005 (ip), vehicle: Klucel (hydroxypropylcellulose) (HPC)
[12] = dose: 100.0 mg/kg/injection, schedule: Q01DX005 (ip), vehicle: Klucel (hydroxypropylcellulose) (HPC)
[13] = dose: 100.0 mg/kg/injection, schedule: Q01DX009 (ip), vehicle: saline with Tween-80
[14] = dose: 200.0 mg/kg/injection, schedule: Q01DX009 (ip), vehicle: saline with Tween-80

Measured: T/C

O=c1oc(-c2ccc(Cl)cc2)nc2cc(Cl)ccc12
inactive: dose: 6.25 mg/kg/injection, schedule: Q01DX009 (ip), vehicle: saline with Tween-80 96 % of control | [1] 100 % of control | [2] 100 % of control | [3] 99 % of control

O=c1ccc2ccc(OC3OC(CO)C(O)C(O)C3O)cc2o1 (centres undefined)
inactive: dose: 1.0 mg/kg/injection, schedule: Q01DX009 (ip), vehicle: saline with Tween-80 106 % of control | dose: 2.0 mg/kg/injection, schedule: Q01DX009 (ip), vehicle: saline with Tween-80 100 % of control | dose: 4.0 mg/kg/injection, schedule: Q01DX009 (ip), vehicle: saline with Tween-80 104 % of control

Cc1c(NS(=O)(=O)c2ccccc2)c(C)c(NS(=O)(=O)c2ccccc2)c(C)c1NS(=O)(=O)c1ccccc1
inactive: dose: 50.0 mg/kg/injection, schedule: Q04DX003 (ip), vehicle: saline with Tween-80 100 % of control | dose: 100.0 mg/kg/injection, schedule: Q04DX003 (ip), vehicle: saline with Tween-80 90 % of control | dose: 200.0 mg/kg/injection, schedule: Q04DX003 (ip), vehicle: saline with Tween-80 90 % of control

C=CCN1C(=O)CS/C1=N\NC(=O)Cc1nc2ccccc2[nH]1
inactive: dose: 100.0 mg/kg/injection, schedule: Q01DX001 (ip), vehicle: Klucel (hydroxypropylcellulose) (HPC) 101 % of control | dose: 200.0 mg/kg/injection, schedule: Q01DX001 (ip), vehicle: Klucel (hydroxypropylcellulose) (HPC) 105 % of control | dose: 400.0 mg/kg/injection, schedule: Q01DX001 (ip), vehicle: Klucel (hydroxypropylcellulose) (HPC) 92 % of control

CCC(C)C(NC(=O)C(CCCCN)N(C(=O)OCc1ccccc1)C(=O)OCc1ccccc1)C(=O)O (centres undefined)
inactive: [4] 99 % of control | [5] 90 % of control | [6] 94 % of control

COc1ccccc1C(Nc1nncs1)Nc1nncs1
inactive: [7] 106 % of control | [8] 97 % of control

CCN=C(N)N/N=C(\C)c1ccc2c(c1)Cc1cc(/C(C)=N/NC(N)=NCC)ccc1-2
inactive: dose: 0.39 mg/kg/injection, schedule: Q04DX002 (ip), vehicle: saline with Tween-80 100 % of control | dose: 0.39 mg/kg/injection, schedule: Q04DX002 (ip), vehicle: saline 98 % of control | dose: 0.78 mg/kg/injection, schedule: Q04DX002 (ip), vehicle: saline with Tween-80 94 % of control | dose: 0.78 mg/kg/injection, schedule: Q04DX002 (ip), vehicle: saline 93 % of control | dose: 1.56 mg/kg/injection, schedule: Q04DX002 (ip), vehicle: saline with Tween-80 103 % of control | dose: 1.56 mg/kg/injection, schedule: Q04DX002 (ip), vehicle: saline 102 % of control | dose: 3.12 mg/kg/injection, schedule: Q04DX002 (ip), vehicle: saline with Tween-80 101 % of control | dose: 3.12 mg/kg/injection, schedule: Q04DX002 (ip), vehicle: saline 104 % of control | dose: 6.25 mg/kg/injection, schedule: Q04DX002 (ip), vehicle: saline with Tween-80 102 % of control | dose: 6.25 mg/kg/injection, schedule: Q04DX002 (ip), vehicle: saline 105 % of control | dose: 12.5 mg/kg/injection, schedule: Q04DX002 (ip), vehicle: saline 105 % of control | dose: 25.0 mg/kg/injection, schedule: Q04DX002 (ip), vehicle: saline 102 % of control

CCOC(=O)N1c2ccccc2C(c2ccccc2)=NC1(C)C#N (centres undefined)
inactive: [4] 97 % of control | [5] 99 % of control | [6] 99 % of control

CSCCOCc1cc(C)no1
inactive: [7] 100 % of control | [8] 100 % of control | [9] 100 % of control

O=CC(O)C(O)C(O)COc1cc(CO)cc2c1C(=O)c1ccccc1C2=O (centres undefined)
inactive: dose: 12.5 mg/kg/injection, schedule: Q01DX005 (ip), vehicle: Klucel (hydroxypropylcellulose) (HPC) 100 % of control | [10] 107 % of control | [11] 106 % of control and 110 % of control | [12] 106 % of control and 107 % of control

CCOC(=O)C(Cc1ccc(O)cc1)NS(=O)(=O)c1ccc(C)cc1 (centres undefined)
inactive: [3] 98 % of control | [13] 100 % of control | [14] 108 % of control

CSc1cnn(-c2ccccc2)[n+]1[O-]
inactive: [4] 98 % of control | [5] 110 % of control | [6] 94 % of control

Cc1ccc(S(=O)(=O)N/N=C/c2ccc(Cl)cc2)cc1
inactive: dose: 12.5 mg/kg/injection, schedule: Q01DX005 (ip), vehicle: saline with Tween-80 102 % of control | dose: 25.0 mg/kg/injection, schedule: Q01DX005 (ip), vehicle: saline with Tween-80 104 % of control and 108 % of control | [4] 100 % of control and 106 % of control and 107 % of control | [6] 121 % of control

NC(CSC(c1ccccc1)(c1ccccc1)c1ccc(CO)cc1)C(=O)O (centres undefined)
inactive: [1] 118 % of control

O=C1C(C(=NCCCN2CCOCC2)c2ccccc2)=C(O)c2ccccc21
inactive: dose: 25.0 mg/kg/injection, schedule: Q04DX002 (ip), vehicle: saline with Tween-80 102 % of control | dose: 50.0 mg/kg/injection, schedule: Q04DX002 (ip), vehicle: saline with Tween-80 101 % of control | dose: 100.0 mg/kg/injection, schedule: Q04DX002 (ip), vehicle: saline with Tween-80 109 % of control

COc1ccc(OC)c(C(=O)c2ccccc2C(=O)O)c1
inactive: [10] 102 % of control | [11] 100 % of control | [12] 96 % of control

O=C1C=CC(=Nc2cc(Cl)c(O)c(Cl)c2)C=C1Cl
inactive: dose: 12.5 mg/kg/injection, schedule: Q01DX005 (ip), vehicle: saline 96 % of control | dose: 25.0 mg/kg/injection, schedule: Q01DX005 (ip), vehicle: saline 100 % of control | dose: 50.0 mg/kg/injection, schedule: Q01DX005 (ip), vehicle: saline 93 % of control

Cc1cc(C)nc(/C=C/c2ccccc2)c1
inactive: [7] 104 % of control | [8] 105 % of control | [9] 106 % of control

CC(O)CNc1n[nH]c(=O)c2ccccc12 (centres undefined)
inactive: [3] 101 % of control | [13] 104 % of control | [14] 94 % of control

Cc1cnnc2ccccc12
inactive: [1] 98 % of control | [2] 106 % of control | [3] 106 % of control
